# Source: patent US20260234112A1, “COMPOUNDS, COMPOSITIONS, AND METHODS OF USE THEREOF” (Type6 Therapeutics, Inc., priority 2023, published 2026)
# Biological target: T1, Cdk2(2-298) (Homo sapiens, UniProt P24941)
# T1 construct: Biotinylated N-terminal avi-tagged Cdk2(2-298) or Cdk1(1-297) was immobilized
# Assay: Surface Plasmon Resonance (SPR) compound interaction, Biacore 8K
# Format: binding
# Conditions: single-cycle kinetics (SCK, "S"), dissociation 1800 sec, read-out: Activity rating (KD)
# Method: Compound interaction was profiled using a Biacore 8K instrument (Cytiva). Biotinylated N-terminal avi-tagged Cdk2(2-298) or Cdk1(1-297) was immobilized on a series S sensor Chip SA at a capture level between 2500 RU and 3000 RU (Cdk2) or 7000 RU (Cdk1) in buffer (25 mM HEPES, 150 mM NaCl, 0.05% Tween20, pH 7.5). A compound dilution plate (8 concentrations, 3-fold dilution) in DMSO was prepared (100× assay concentration). From this plate, compound DMSO stock solution was transferred into buffer, yielding a final DMSO concentration of 1% in assay. The remaining buffer was supplemented with 1% DMSO. Compounds were injected in a series of increasing concentrations in multi-cycle kinetics (MCK, “M”) or single-cycle kinetics (SCK, “S”) mode at a flow rate of 30 μl/min for 120 sec and dissociation was profiled for 180 sec (MCK) or 1800 sec (SCK). Data were analysed using Biacore Insight Evaluation Software (Cytiva).
row,Kd [nM],SMILES
1,11 to 100,"N[C@H]1CC[C@H](Nc2nccc(-c3ccccc3Oc3ccc(NS(=O)(=O)c4ccccc4)cc3F)n2)CC1 [Compound 1, N-[4-[2-[2-[(1r,4r)(4-Aminocyclohexyl)amino]pyrimidin-4-yl]phenoxy]-3-fluoro-phenyl] benzenesulfonamide]"
2,1000 to 5000,"O=S(=O)(Nc1ccc(Oc2ccccc2-c2ccnc(N[C@H]3CCCNC3)n2)c(F)c1)c1ccccc1 [Compound 2, N-[3-Fluoro-4-[2-[2-[[(3S)-3-piperidyl]amino]pyrimidin-4-yl]phenoxy]phenyl] benzenesulfonamide]"
3,11 to 100,"N[C@H]1CC[C@H](Nc2nccc(-c3ccccc3Oc3ccc(NS(=O)(=O)c4ccccc4Cl)cc3F)n2)CC1 [Compound 3, N-[4-[2-[2-[(1r,4r)(4-Aminocyclohexyl)amino]pyrimidin-4-yl]phenoxy]-3-fluorophenyl] 2-chlorobenzenesulfonamide]"
4,100 to 1000,"N[C@H]1CC[C@H](Nc2nccc(-c3ccccc3Oc3ccc(NS(=O)(=O)c4cccc5ccccc45)cc3F)n2)CC1 [Compound 4, N-[4-[2-[2-[(1r,4r)(4-Aminocyclohexyl)amino]pyrimidin-4-yl]phenoxy]-3-fluorophenyl] naphthalene-1-sulfonamide]"
5,≤ 10,"O=S(=O)(Nc1ccc(Oc2ccccc2-c2ccnc(N[C@H]3CCCNC3)n2)c(F)c1)c1ccccc1Cl [Compound 5, N-[3-Fluoro-4-[2-[2-[[(3S)-3-piperidyl]amino]pyrimidin-4-yl]phenoxy]phenyl] 2-chlorobenzenesulfonamide]"
6,100 to 1000,"O=S(=O)(Nc1ccc(Oc2ccccc2-c2ccnc(N[C@H]3CCCNC3)n2)c(F)c1)c1cccc2ccccc12 [Compound 6, N-[3-Fluoro-4-[2-[2-[[(3S)-3-piperidyl]amino]pyrimidin-4-yl]phenoxy]phenyl] naphthalene-1-sulfonamide]"
7,11 to 100,"Cc1ccc(Oc2ccc(NS(=O)(=O)c3ccccc3Cl)cc2F)c(-c2ccnc(N[C@H]3CC[C@H](N)CC3)n2)c1 [Compound 7, N-[4-[2-[2-[(1r,4r)(4-Aminocyclohexyl)amino]pyrimidin-4-yl]-4-methylphenoxy]-3-fluorophenyl] 2-chlorobenzenesulfonamide]"
8,11 to 100,"N[C@H]1CC[C@H](Nc2nccc(-c3cc(C(F)(F)F)ccc3Oc3ccc(NS(=O)(=O)c4ccccc4Cl)cc3F)n2)CC1 [Compound 8, N-[4-[2-[2-[(1r,4r)(4-Aminocyclohexyl)amino]pyrimidin-4-yl]-4-(trifluoromethyl)phenoxy]-3-fluorophenyl] 2-chlorobenzenesulfonamide]"
9,11 to 100,"Cc1ccc(-c2ccnc(N[C@H]3CC[C@H](N)CC3)n2)c(Oc2ccc(NS(=O)(=O)c3ccccc3Cl)cc2F)c1 [Compound 9, N-[4-[2-[2-[(1r,4r)(4-Aminocyclohexyl)amino]pyrimidin-4-yl]-5-methylphenoxy]-3-fluorophenyl] 2-chlorobenzenesulfonamide]"
10,11 to 100,"N#Cc1ccc(Oc2ccc(NS(=O)(=O)c3ccccc3Cl)cc2F)c(-c2ccnc(N[C@H]3CC[C@H](N)CC3)n2)c1 [Compound 10, N-[4-[2-[2-[(1r,4r)(4-Aminocyclohexyl)amino]pyrimidin-4-yl]-4-cyanophenoxy]-3-fluorophenyl] 2-chlorobenzenesulfonamide]"
11,11 to 100,"CC(C)(C)c1ccc(-c2ccnc(N[C@H]3CC[C@H](N)CC3)n2)c(Oc2ccc(NS(=O)(=O)c3ccccc3Cl)cc2F)c1 [Compound 11, N-[4-[2-[2-[(1r,4r)(4-Aminocyclohexyl)amino]pyrimidin-4-yl]-5-(1,1-dimethylethyl)phenoxy]-3-fluorophenyl] 2-chlorobenzenesulfonamide]"
12,11 to 100,"N[C@H]1CC[C@H](Nc2nccc(-c3ccc(I)cc3Oc3ccc(NS(=O)(=O)c4ccccc4Cl)cc3F)n2)CC1 [Compound 16, N-[4-[2-[2-[(1r,4r)(4-Aminocyclohexyl)amino]pyrimidin-4-yl]-5-iodophenoxy]-3-fluorophenyl] 2-chlorobenzenesulfonamide]"
13,11 to 100,"CCc1ccc(-c2ccnc(N[C@H]3CC[C@H](N)CC3)n2)c(Oc2ccc(NS(=O)(=O)c3ccccc3Cl)cc2F)c1 [Compound 17, N-[4-[2-[2-[(1r,4r)(4-Aminocyclohexyl)amino]pyrimidin-4-yl]-5-ethylphenoxy]-3-fluorophenyl] 2-chlorobenzenesulfonamide]"
14,> 5000,"N[C@H]1CC[C@H](Nc2nccc(-c3ccc(-c4ccccc4)cc3Oc3ccc(NS(=O)(=O)c4ccccc4Cl)cc3F)n2)CC1 [Compound 18, N-[4-[2-[2-[(1r,4r)(4-Aminocyclohexyl)amino]pyrimidin-4-yl]-5-phenylphenoxy]-3-fluorophenyl] 2-chlorobenzenesulfonamide]"
15,11 to 100,"N[C@H]1CC[C@H](Nc2nccc(-c3ccc(C4CC4)cc3Oc3ccc(NS(=O)(=O)c4ccccc4Cl)cc3F)n2)CC1 [Compound 19, N-[4-[2-[2-[(1r,4r)(4-Aminocyclohexyl)amino]pyrimidin-4-yl]-5-cyclopropylphenoxy]-3-fluorophenyl] 2-chlorobenzenesulfonamide]"
16,11 to 100,"CC(C)c1ccc(-c2ccnc(N[C@H]3CC[C@H](N)CC3)n2)c(Oc2ccc(NS(=O)(=O)c3ccccc3Cl)cc2F)c1 [Compound 20, N-[4-[2-[2-[(1r,4r)(4-Aminocyclohexyl)amino]pyrimidin-4-yl]-5-(1-methylethyl)phenoxy]-3-fluorophenyl] 2-chlorobenzenesulfonamide]"
17,11 to 100,"C=Cc1ccc(-c2ccnc(N[C@H]3CC[C@H](N)CC3)n2)c(Oc2ccc(NS(=O)(=O)c3ccccc3Cl)cc2F)c1 [Compound 21, N-[4-[2-[2-[(1r,4r)(4-Aminocyclohexyl)amino]pyrimidin-4-yl]-5-ethenylphenoxy]-3-fluorophenyl] 2-chlorobenzenesulfonamide]"
18,11 to 100,"N[C@H]1CC[C@H](Nc2nccc(-c3ccc(C4CCCCC4)cc3Oc3ccc(NS(=O)(=O)c4ccccc4Cl)cc3F)n2)CC1 [Compound 22, N-[4-[2-[2-[(1r,4r)(4-Aminocyclohexyl)amino]pyrimidin-4-yl]-5-cyclohexylphenoxy]-3-fluorophenyl] 2-chlorobenzenesulfonamide]"
19,≤ 10,"N[C@H]1CC[C@H](Nc2nccc(-c3cc4ccccc4cc3Oc3ccc(NS(=O)(=O)c4ccccc4Cl)cc3F)n2)CC1 [Compound 23, N-[4-[2-[2-[(1r,4r)(4-Aminocyclohexyl)amino]pyrimidin-4-yl]naphthyl-3-oxy]-3-fluorophenyl] 2-chlorobenzenesulfonamide]"
20,≤ 10,"N[C@H]1CC[C@H](Nc2nccc(-c3cnccc3Oc3ccc(NS(=O)(=O)c4ccccc4Cl)cc3F)n2)CC1 [Compound 24, N-[4-[[3-[2-(1r,4r)[(4-aminocyclohexyl)amino]pyrimidin-4-yl]-4-pyridyl]oxy]-3-fluoro-phenyl]-2-chloro-benzenesulfonamide]"
21,11 to 100,"O=S(=O)(Nc1ccc(Oc2ccncc2-c2ccnc(N[C@H]3CCCNC3)n2)cc1F)c1ccccc1Cl [Compound 25, N-[2-Fluoro-4-[[3-[2-[[(3S)-3-piperidyl]amino]pyrimidin-4-yl]-4-pyridyl]oxy]phenyl] 2-chlorobenzenesulfonamide]"
22,≤ 10,"N[C@H]1CC[C@H](Nc2nccc(-c3cnccc3Oc3ccc(NS(=O)(=O)c4c(F)cccc4F)cc3F)n2)CC1 [Compound 26, N-[4-[[3-[2-[(1r,4r)(4-Aminocyclohexyl)amino]pyrimidin-4-yl]-4-pyridyl]oxy]-3-fluoro-phenyl] 2,6-difluoro-benzenesulfonamide]"
23,11 to 100,"COc1ccccc1S(=O)(=O)Nc1ccc(Oc2ccncc2-c2ccnc(N[C@H]3CC[C@H](N)CC3)n2)c(F)c1 [Compound 27, N-(4-((3-(2-((1r,4r)-4-aminocyclohexyl)amino)pyrimidin-4-yl)pyridin-4-yloxy)-3-fluorophenyl) 2-methoxybenzenesulfonamide]"
24,100 to 1000,"COc1ccc(Br)cc1S(=O)(=O)Nc1ccc(Oc2ccncc2-c2ccnc(N[C@H]3CC[C@H](N)CC3)n2)c(F)c1 [Compound 28, N-(4-((3-(2-((1r,4r)-4-aminocyclohexyl)amino)pyrimidin-4-yl)pyridin-4-yloxy)-3-fluorophenyl) 5-bromo-2-methoxybenzenesulfonamide]"
25,11 to 100,N[C@H]1CC[C@H](Nc2nccc(-c3cnccc3Oc3ccc(NS(=O)(=O)c4cccs4)cc3F)n2)CC1 [Compound 29]
26,100 to 1000,"N#Cc1ccc(S(=O)(=O)Nc2ccc(Oc3ccncc3-c3ccnc(N[C@H]4CC[C@H](N)CC4)n3)c(F)c2)cc1 [Compound 30, N-(4-((3-(2-((1r,4r)-4-aminocyclohexyl)amino)pyrimidin-4-yl)pyridin-4-yloxy)-3-fluorophenyl) 4-cyanobenzenesulfonamide]"
27,11 to 100,"N[C@H]1CC[C@H](Nc2nccc(-c3cnccc3Oc3ccc(NS(=O)(=O)c4csc5ccccc45)cc3F)n2)CC1 [Compound 31, N-(4-((3-(2-((1r,4r)-4-aminocyclohexyl)amino)pyrimidin-4-yl)pyridin-4-yloxy)-3-fluorophenyl) benzo[b]thiophene-3-sulfonamide]"
28,100 to 1000,"N[C@H]1CC[C@H](Nc2nccc(-c3cnccc3Oc3ccc(NS(=O)(=O)c4ccccc4)c(C(F)(F)F)c3)n2)CC1 [Compound 32, N-(4-((3-(2-(((1r,4r)-4-Aminocyclohexyl)amino)pyrimidin-4-yl)pyridin-4-yl)oxy)-2-(trifluoromethyl)phenyl) benzenesulfonamide]"
